Laboratory results published in patent publication US20220193010A1, “METHODS OF USING DIPIVEFRIN” (INSIGNIS THERAPEUTICS, INC., priority 2017, published 2022).
Where a name gives a salt, the structure may show the parent alone.

Experiments:
[1] = test system: B16-F10 syngeneic melanoma tumors; test: Subcutaneous B16-F10 syngeneic melanoma tumor model, oral dipivefrin as single agent; type: in vivo, C57BL/6J mice; details: for MST (median survival time): vehicle 17.0
Description: The treatments were started 7 days before tumor inoculation per study design (day −7).
The endpoints of the study included the following: tumor growth inhibition (TGJ); reduction in median tumor volume on a given day; survival of all animals will be followed and Median Survival Time (MST) and increase in life-span (ILS) will be calculated for each group.
The percent tumor growth inhibition (TGJ %) is an indication of antitumor effectiveness, and is expressed as: TGJ (%)=100× (1-TIC), in which T and C are the mean tumor volume of the treated and control groups, respectively, on a given day.
The endpoint for each mouse is either a tumor volume >3000 mm^3 or the animal is in extreme discomfort (such as pain, seizure, difficulty breathing, etc.). The increase in life-span (ILS) is calculated as follows: ILS (%)=100× [(Median Survival Time of drug treated group/Median Survival Time of vehicle group)−1] (%)
Female C57BL/6J mice (Shanghai Lingchang Bio-Technology Co. Ltd (LC, Shanghai, China; Animal Certificate No.: 2013001825675) were used in the study. At inoculation, mice were 7-8 weeks old with a body weight of 16.2-18.6 g. The mice were kept in an Individually Ventilated Cage (IVC) system at constant temperature (22˜24° C.) and humidity (60-70%) with 5 animals in each cage. Animals had free access during the entire study period to a standard mouse diet (a Co^60 irradiation-sterilized dry granule food) and water.
The test articles used in the study were dipivefrin hydrochloride (1.9 mg/ml freebase, pre-formulated dosing solution) or the vehicle (purified water containing 0.005% wt of benzalkonium chloride as preservative). Each was stored at 4° C. The B16-F10 tumor cells were maintained in vitro as a monolayer culture in DMEM medium supplemented with 10% fetal bovine serum at 37° C. in an atmosphere of 5% CO2 in air. The tumor cells were routinely subcultured twice per week. The cells growing in an exponential growth phase were harvested and counted for tumor inoculation.
Each mouse was inoculated subcutaneously at the right flank region with 2×10^5 B16F10 tumor cells in 0.1 ml of PBS for tumor development. The treatments were started 7 days prior to the inoculation. The test article was administered to the tumor-bearing mice according to the predetermined regimen as shown in the Study Design Table 3. The date of tumor cell inoculation was denoted as day 0.
First grouping: On day 7, all 30 animals were weighed and the body weight was used as numeric parameter to randomize selected animals into two groups in an effort to minimize systematic error.
Second grouping: On day 8, all 20 animals in group-1 were randomized into two groups (1a and 1b) based on tumor volume. Dose administrations were performed as shown Table 5.
After tumor cell inoculation, animals were checked daily for morbidity and mortality. At the time of routine monitoring, the animals were checked for any effects of tumor growth and treatments on normal behavior such as mobility, food and water consumption, body weight gain/loss (body weights were measured twice or thrice per week), eye/hair matting and any other abnormal effect. Death and observed clinical signs were recorded on the basis of the numbers of animals within each subset.
Tumor volumes were measured twice or thrice per week in two dimensions using a caliper, with the volume in mm^3 estimated using the formula: V=0.5 a×b^2 where a and b are the long and short perpendicular diameters of the tumor, respectively. The procedures of dosing as well as tumor and body weight measurement were conducted in a Laminar Flow Cabinet.
On day 17, mice which tumor volumes exceeded 3000 mm^3 were euthanized and the whole study was terminated on day 19. Additionally, mouse #15 in group 1-b was dead on day 13 due to an operation error, while mouse #7 in group 1-a was found dead on day 18 due to tumor ulceration. […]

[2] = test system: influenza A/California/04/2009 (H1N1pdm) virus; test: Influenza A (H1N1pdm) virus infection in mice, single oral dose; type: in vivo, C57BL/6J mice; details: for body weight loss during infection vs placebo: single p.o. dose 8.48 mg/kg 24 hours after infection, 6-day observation, p<0.05 days 5 and 6; for body weight loss during infection vs placebo / influenza virus titers in lung tissues vs placebo: 8.48 mg/kg; for influenza virus titers in lung tissues vs placebo: day 3 or 6 p.i.
[3] = for clinical observations after IM injection: dose equivalent to 0.3 mg epinephrine, 3 mice per group
[4] = in vivo; type: in vivo, New Zealand White Rabbits
[5] = beagle dogs N=3, IM 0.3 mg, mean ± SEM
Experimental: Four days prior to study initiation, 1 mL of whole blood was collected from four (n=4) non-naive male Beagle dogs, aged 1.5-6.5 years and ranging from 9.8 to 10.8 kilograms in weight, into 4 chilled tubes containing K2EDTA. The blood was processed to plasma and plasma cholinesterase activity was assayed according to the Ellman method using acetylthiocholine iodide as the substrate (Ellman, G. L. et al Biochemical Pharmacology, 1961, volume 7, page 88-95). Based on the plasma cholinesterase activity assay results, the first three dogs with highest plasma cholinesterase activity were selected for the PK study.
The dogs were housed one per cage and identified by ear tags and cage labels. The animals were healthy at the start of the study. Primary enclosures were as specified in the USDA Animal Welfare Act (9 CFR, Parts 1, 2, and 3) and as described in the Guide for Care and Use of Laboratory Animals (ILAR publication, 2011, National Academy Press). Animals were fasted for a minimum of 12 hours prior to dosing and returned 4 hours post dose; Water was supplied ad libitum to the animals.
Dosing occurred at 0 hours on the appropriate day in accordance with the Study Design table (Table 11). […] The intramuscular dose was administered via 25 gauge needle and syringe into the lateral aspect of the left or right thigh. […]

[6] = human, in vivo, im; cited from earlier work
[7] = Pharmacokinetic profile after single oral administration in mice (plasma epinephrine by LC/MS/MS); type: in vivo, C57BL6 mice; details: oral (also IM and IP) administration
Experimental: Male C57BL6 mice, approximately 14 weeks of age and weighing between 28 and 31 g, were placed in an anesthesia chamber and transiently anesthetized with isoflurane (Henry Schein). After approximately 5 minutes and in the absence of reflex (toe pinch), mice were bled via retro-orbital sinus at t=0 (pre-dose). […] Following oral administration, mice were then retro-orbital bled under anesthesia at the following time points post-dose: 15, 30, 1 h, 2 h, 4 h, and 6 h. About 45 μl of the diluted plasma was recovered and plated. The plasma samples were analyzed for epinephrine using a validated LC/MS/MS method (Keystone Bioanalytics, North Wales Pa.).

[8] = test system: methicillin-resistant Staphylococcus aureus (MRSA) NRS71-Sanger 252; test: Peritonitis-sepsis model of MRSA infection; type: in vivo, C57BL/6J mice
Experimental: Two (2) groups of C57BL/6J 6 to 8 week old female mice (ca 20 g body weight) with 10 mice/group were injected IP with 2×10^8 CFU/mL of methicillin-resistant Staphylococcus aureus (MRSA) NRS71-Sanger 252 in a volume of 200 μL. The treatment group was dosed with dipivefrin 15.3 mg/kg (freebase) by oral gavage starting at t=−5 days relative to bacterial inoculation. Dosing occurred once daily up to 7 days post bacterial inoculation. Body weights were measured once per day on days 0 to 7 and the experimental endpoint was survival at 7 days. Animals falling below 20% of original weight post-infection was euthanized. Four hours (4 hours) post infection, blood was drawn from 4 animals in each group and bacterial load was determined through a standard plating assay. Each blood sample was diluted by serial log dilutions and 10 dilutions (100 to 10-s) was plated in duplicate on TSA with 5% sheep's blood. The plates were incubated for 24 hours at 37° C. at which time formed colonies was enumerated and CFU/mL was determined. One mouse in the vehicle group was found dead the next day following infection and no subsequent death occurred up to 7 days post infection. No mouse died in the treatment group up to 7 days post infection.

In the case of CNCC(O)c1ccc(OC(=O)C(C)(C)C)c(OC(=O)C(C)(C)C)c1 (stereo not drawn) [Dipivefrin HCl, Dipivefrin hydrochloride], the drug related deaths ([1]; 15.3 mg/kg (freebase) p.o. daily, study period) is reported as “no drug related deaths were observed”, the “effect on body weight” value ([1]; 15.3 mg/kg (freebase) p.o. daily, tumor-bearing mice) is reported as “no effect on body weight” and the mean tumor volume ([1]; 5 days post B16F10 inoculation, 15.3 mg/kg p.o. QD from day -7, vehicle 16.4±2.5, p<0.01) is reported as 6.2±1.1 mm^3. The “body weight loss during infection vs placebo” value ([2]; hydrochloride) was “less weight loss compared to placebos”, the “influenza virus titers in lung tissues vs placebo” value ([2]; single p.o. dose 8.48 mg/kg, hydrochloride) was “slightly lower in treated mice compared to placebos, the difference was not statistically significant” and the “absorption and conversion into epinephrine” value ([3]; mice, IM 0.636 mg) was “absorbed rapidly upon IM injection and quickly converted into epinephrine”. The “clinical observations after IM injection” value ([3]; mice) was “appeared to be normal throughout the study and showed no signs of distress or illness”.

In the case of CNC[C@H](O)c1ccc(O)c(O)c1 [Epinephrine], the AUC(0-t) ([4]; female, New Zealand White, rabbit, in vivo, im, 0.3 mg) is reported as 19.6 ng·h/mL, the “Cmax (plasma epinephrine)” value ([4]; rabbits, IM 0.3 mg, mean±SEM) is reported as 50.23 ± 14.95 ng/mL and the “AUClast (plasma epinephrine)” value [5] is reported as 147.37 ± 39.41 ng·min/mL. For the same compound, the Tmax [6] was 67 ± 43 min.

In the case of CNCC(O)c1ccc(OC(=O)C(C)(C)C)c(OC(=O)C(C)(C)C)c1 (stereo not drawn) [dipivefrin, 4-(1-hydroxy-2-(methylamino)ethyl)-1,2-phenylene bis(2,2-dimethylpropanoate)], the “absorption and biotransformation into epinephrine” value [7] is reported as “absorbed and biotransformed into epinephrine rapidly”, the median tumor volume ([1]; 14 days post B16F10 inoculation, 15.3 mg/kg p.o. QD, vehicle 1060, p<0.05) is reported as 827 mm^3 and the “ILS (increase in life-span)” value ([1]; Group-1b vs vehicle group 1a, p=0.038) is reported as 12%. The “MST (median survival time)” value ([1]; Group-1b, 15.3 mg/kg p.o. from day 8) was 19.0 days, the “MST (median survival time)” value ([1]; Group-2, 15.3 mg/kg p.o. from day -7) was 18.0 days and the “ILS (increase in life-span)” value ([1]; Group-2 vs vehicle, p=0.175) was 6%. For the same compound, the mean tumor volume ([1]; day 19, group 1b, 15.3 mg/kg p.o. QD from day 8 (established tumor), vehicle 3668.0±311.9) was 2997.2±341.6 mm^3, the “reduction in mean tumor volume compared to vehicle” value ([1]; day 19, group 1b, dosing from day 8) was “about 18%” and the “body weight loss during infection vs placebo” value [2] was “losing less weight”. For the same compound, the “influenza virus titers in lung tissues vs placebo” value ([2]; single p.o. dose 8.48 mg/kg) was “did not differ significantly”, the “visual lung hemorrhage score (scale 0 to 4)” value ([2]; single p.o. dose 8.48 mg/kg, lungs day 3 and day 6 p.i.) was 0-3 and the “lung virus titers day 6 p.i. vs day 3 p.i.” value ([2]; single p.o. dose 8.48 mg/kg, p<0.05) was “lower virus titers in lung tissues on day 6 p.i. than on day 3 p.i”. The “survival at 7 days post infection” value ([8]; 15.3 mg/kg (freebase) oral gavage once daily from day -5 to day 7, 10 mice) was “No mouse died” and the blood bacterial counts ([8]; 4 hours post infection, 4 animals per group, p<0.05) was “significantly higher for the vehicle treated group than the drug treated group”.

For CNC[C@H](O)c1ccc(O)c(O)c1 [epinephrine bitartrate], the mice found dead ([3]; IM epinephrine bitartrate 0.546 mg (0.3 mg freebase), approximately 20 minutes post administration) was “Two out of three” and the “clinical observations after IM injection” value ([3]; mice) was “cold and lethargic approximately 5 minutes after IM injection”.
